Test results from patent publication US9493451B2 (Bionomics Limited, priority 2011, dated 2016).

Target: T1, Kv1.3 (Homo sapiens, UniProt P22001)
T1 construct: expressed in transfected cells; host or cells: CHO (Kv1.3/CHO)
Test: Electrophysiology: planar patch-clamp of Kv1.3 currents, IC50 from steady state current amplitude
Format: cell-based
Conditions: Kv1.3 electrophysiology, results according to Method D1, read-out: IC50 (Kv1.3 ephys steady state)
Method: The inhibition data shown for the compounds of the list below was calculated using the steady state current amplitude at the end of the depolarising pulse in patch clamp evaluations (as described in the Biology Protocols: 1. Electrophysiology).
Kv1.x currents were measured in Kv1.3/CHO or Kv1.5/CHO cells using a planar electrode version (Nanion Technologies GMBH) of the patch-clamp technique. Whole-cell Kv1.x current transients were evoked by 500 ms depolarising voltage pulses to +40 mV from a holding potential of −80 mV applied at 10 s intervals for Kv1.5 and at 30 s intervals for Kv1.3 to allow adequate time for recovery from inactivation. Cells were continuously bathed in a buffered saline solution containing (mM): 160 NaCl, 4.5 KCl, 2 CaCl2, 1 MgCl2, 5 glucose, 10 HEPES, pH 7.4, 290-310 mOsm·Kg^−1. The internal (pipette) solution contained (mM): 10 NaCl, 70 KF, 75 KCl, 2 MgCl2, 10 HEPES, 10 EGTA, pH 7.2, 290-310 mOsm·Kg^−1. Series resistance compensation (60-80%) was applied to cells in which the peak current amplitude exceeded 2 nA.
Compound Preparation and Potency Assessment
Compounds were initially dissolved in DMSO to 10 mM. After further dilution in DMSO, compounds were finally diluted in bath solution 1/200 (to give a final DMSO concentration of 0.5%) and applied directly to the recording chamber. Compounds were added at increasing concentrations allowing ample time for steady state block to be achieved between each concentration. Each compound was tested at 5-6 different concentrations on 2-3 cells. Compound IC50 values were determined by fitting the average normalised reduction of either the current integral or the steady state current amplitude at the end of the 500 ms depolarising pulse obtained at each compound concentration to the Hill equation. The IC50 data reported herein is based on the steady state calculation.

T1 sequence (P22001 whole entry): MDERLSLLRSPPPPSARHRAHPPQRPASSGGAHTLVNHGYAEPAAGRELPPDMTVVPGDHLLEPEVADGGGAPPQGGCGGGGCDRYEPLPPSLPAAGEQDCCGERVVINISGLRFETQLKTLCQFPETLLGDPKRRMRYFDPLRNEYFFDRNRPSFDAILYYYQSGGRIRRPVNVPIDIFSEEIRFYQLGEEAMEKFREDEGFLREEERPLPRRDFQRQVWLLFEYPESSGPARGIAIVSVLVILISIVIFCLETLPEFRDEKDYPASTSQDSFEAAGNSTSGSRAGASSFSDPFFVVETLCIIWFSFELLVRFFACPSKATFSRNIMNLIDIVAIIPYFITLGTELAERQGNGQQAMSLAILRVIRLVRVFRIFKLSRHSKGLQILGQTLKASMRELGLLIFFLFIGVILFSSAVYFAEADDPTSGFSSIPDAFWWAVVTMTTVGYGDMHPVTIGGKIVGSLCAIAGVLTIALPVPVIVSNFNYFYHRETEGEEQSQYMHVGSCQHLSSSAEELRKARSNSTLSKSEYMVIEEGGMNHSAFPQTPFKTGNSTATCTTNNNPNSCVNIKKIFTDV

IC50 [nM]	Compound
200 to 1000	CN1CCC(C(c2ccc(F)cc2F)N(Cc2ccc(F)cn2)C(=O)CS(=O)(=O)c2ccc(F)cc2)CC1 (stereo not shown) [Example 287]
200 to 1000	CN1CC(C(c2ccc(OC(F)F)cc2)N(Cc2ncccc2F)C(=O)C2CC2c2ccc(F)cc2)C1 (stereo not shown) [Example 151]
1000 to 2000	CC(c1ccc(S(C)(=O)=O)cc1)N(Cc1ccc(C(F)(F)F)nc1)C(=O)C(C)(C)S(=O)(=O)c1ccccc1 (stereo not shown) [Example 288]
200 to 1000	CC(C)S(=O)(=O)c1cccc(C(C2CC2)N(Cc2ncccc2F)C(=O)C2CC2c2ccc(F)cc2)c1 (stereo not shown) [Example 245]
200 to 1000	CN1CCC(C(c2cccc(C(F)(F)F)c2)N(Cc2cncc(F)c2)C(=O)C2CC2c2ccc(F)cc2)CC1 (stereo not shown) [Example 148]
50 to 200	CCS(=O)(=O)c1cccc(C(C2CC2)N(Cc2ccc(F)cn2)C(=O)C2CC2c2ccc(F)cc2)c1 (stereo not shown) [Example 215]
50 to 200	CCS(=O)(=O)c1cccc(C(C2CC2)N(Cc2cccnn2)C(=O)C2CC2c2ccc(F)cc2)c1 (stereo not shown) [Example 223]
50 to 200	CCS(=O)(=O)c1ccc(C(C2CC2)N(Cc2ccc(F)cn2)C(=O)C2CC2c2ccc(F)cc2)cc1 (stereo not shown) [Example 232]
50 to 200	O=C(C1CC1c1ccc(F)cc1)N(Cc1cccnn1)C(c1ccc(S(=O)(=O)C2CC2)cc1)C1CC1 (stereo not shown) [Example 249]
50 to 200	O=C(CS(=O)(=O)c1ccc(F)cc1)N(Cc1ccc(C(F)(F)F)nc1)C(c1ccc(OC(F)F)cc1)C1CC1 (stereo not shown) [Example 312]
< 50	CC(C(=O)N(Cc1ccccn1)C(c1ccc(Cl)cc1)C1CC1)S(=O)(=O)c1ccc(F)cc1 (single isomer, unassigned) [Example 296]
50 to 200	CCS(=O)(=O)c1ccc(C(C2CC2)N(Cc2cccnn2)C(=O)C2CC2c2ccc(F)cc2)cc1 (stereo not shown) [Example 231]
50 to 200	CCS(=O)(=O)c1cccc(C(C2CC2)N(Cc2ccc(F)cn2)C(=O)C2CC2c2ccc(F)cc2F)c1 (stereo not shown) [Example 196]
200 to 1000	N#Cc1cccc(C(C2CC2)N(Cc2ncccc2F)C(=O)C2CC2c2ccc(F)cc2)c1 (stereo not shown) [Example 251]
1000 to 2000	CCC(c1ccc(S(C)(=O)=O)cc1)N(Cc1cccnn1)C(=O)C1CC1c1ccc(F)cc1 (stereo not shown) [Example 125]
200 to 1000	CC(C)S(=O)(=O)c1cccc(C(C2CC2)N(Cc2cncc(F)c2)C(=O)C2CC2c2ccc(F)cc2)c1 (stereo not shown) [Example 244]
200 to 1000	O=C(CS(=O)(=O)c1ccc(F)cc1)N(C1CCC(F)(F)CC1)C(c1ccc(OC(F)F)cc1)C1CC1 (stereo not shown) [Example 316]
50 to 200	CCS(=O)(=O)c1ccc(C(C2CC2)N(Cc2ccc(F)cn2)C(=O)C2CC2c2cccc(C(F)(F)F)c2)cc1 (stereo not shown) [Example 227]
50 to 200	O=C(CS(=O)(=O)c1ccccc1)N(Cc1ccc(C(F)(F)F)nc1)C(c1ccc(F)cc1)C1CCCO1 (stereo not shown) [Example 282]
200 to 1000	O=C(CS(=O)(=O)c1cccc(C(F)(F)F)c1)N(Cc1cccc[n+]1[O-])C(c1ccc(Cl)cc1)C1CC1 (stereo not shown) [Example 292]
50 to 200	O=C(CS(=O)(=O)c1ccc(F)cc1)N(Cc1ncccc1F)C(c1ccc(OC(F)F)cc1)C1CC1 (stereo not shown) [Example 309]
< 50	O=C(CC1(c2ccc(F)cc2)CC1)N(Cc1cccnn1)[C@@H](c1ccc(OC(F)F)cc1)C1CC1 [Example 89, N—{(R)-cyclopropyl[4-(difluoromethoxy)phenyl]methyl}-2-[1-(4-fluorophenyl)cyclopropyl]-N-(pyridazin-3-ylmethyl)acetamide]
200 to 1000	O=C(C1CC1c1cccc(C(F)(F)F)c1)N(Cc1cccnn1)C(c1ccc(OC(F)F)cc1)C1CC1 (stereo not shown) [Example 184]
1000 to 2000	CC(c1ccc2c(c1)[S+]([O-])C(C)(C)O2)N(Cc1ccccn1)C(=O)CCc1cccc(C(F)(F)F)c1 (stereo not shown) [Example 63, N-[1-(2,2-dimethyl-3-oxido-1,3-benzoxathiol-5-yl)ethyl]-N-(pyridin-2-ylmethyl)-3-[3-(trifluoromethyl)phenyl]propanamide]
50 to 200	CC(C)(C(=O)N(Cc1ccc(C(F)(F)F)nc1)C(c1ccc(OC(F)F)cc1)C1CC1)S(=O)(=O)c1ccccc1 (stereo not shown) [Example 324]
